According to the supplement of paper PMC5908809:

Tests used:
[1] = system: IMC-1 (IL-2 20 ng/mL); assay: percent inhibition of viability; higher = more inhibition; conditions: 72 h
[2] = system: SNK-6 (IL-2 2.5 ng/mL); assay: as above; conditions: 72 h
[3] = system: YT (IL-2 2.5 ng/mL); assay: as above; conditions: 72 h
[4] = system: KHYG-1 (IL-2 2.5 ng/mL); assay: as above; conditions: 72 h
[5] = system: NK-YS (IL-2 2.5 ng/mL); assay: as above; conditions: 72 h
[6] = system: normal primary NK cells, pool 2 (3 donors) (IL-2 2.5 ng/mL); assay: as above; conditions: 72 h
[7] = system: KAI3 (IL-2 2.5 ng/mL); assay: as above; conditions: 72 h
[8] = system: normal primary NK cells, pool 1 (3 donors), resting (IL-2 0 ng/mL); assay: as above; conditions: 72 h
[9] = system: NK-92 (IL-2 2.5 ng/mL); assay: as above; conditions: 72 h
[10] = system: NKL (IL-2 2.5 ng/mL); assay: as above; conditions: 72 h
[11] = system: normal primary NK cells, pool 1 (3 donors) (IL-2 2.5 ng/mL); assay: as above; conditions: 72 h
[12] = system: DERL-7 (IL-2 2.5 ng/mL); assay: as above; conditions: 72 h
[13] = system: normal primary NK cells, pool 3 (3 donors) (IL-2 2.5 ng/mL); assay: as above; conditions: 72 h
[14] = system: normal NK cells expanded with K562-aAPC; assay: drug sensitivity score (DSS) (DSS units); higher = more sensitive; extreme values may be limits of the assay; conditions: 72 h; IL-2 2.5 ng/mL
Method: (§1)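 Drug sensitivity and resistance testing on K562-aAPC-expanded normal NK cells: 5 concentrations (10-fold steps over a 10,000-fold range), 72 h at 37 °C, viability by CellTiter-Glo normalised to DMSO and benzethonium chloride controls; DSS from the fitted curve.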

[15] = system: normal NK cells expanded with K562-aAPC; assay: percent inhibition of viability; higher = more inhibition; conditions: 72 h, IL-2 2.5 ng/mL
Method: as §1

[16] = system: IMC-1 (IL-2 20 ng/mL); assay: drug sensitivity score (DSS) (DSS units); higher = more sensitive; extreme values may be limits of the assay; conditions: 72 h
[17] = system: SNK-6 (IL-2 2.5 ng/mL); assay: as above; conditions: 72 h
[18] = system: YT (IL-2 2.5 ng/mL); assay: as above; conditions: 72 h
[19] = system: KHYG-1 (IL-2 2.5 ng/mL); assay: as above; conditions: 72 h
[20] = system: NK-YS (IL-2 2.5 ng/mL); assay: as above; conditions: 72 h
[21] = system: normal primary NK cells, pool 2 (3 donors) (IL-2 2.5 ng/mL); assay: as above; conditions: 72 h
[22] = system: KAI3 (IL-2 2.5 ng/mL); assay: as above; conditions: 72 h
[23] = system: normal primary NK cells, pool 1 (3 donors), resting (IL-2 0 ng/mL); assay: as above; conditions: 72 h
[24] = system: NK-92 (IL-2 2.5 ng/mL); assay: as above; conditions: 72 h
[25] = system: NKL (IL-2 2.5 ng/mL); assay: as above; conditions: 72 h
[26] = system: normal primary NK cells, pool 1 (3 donors) (IL-2 2.5 ng/mL); assay: as above; conditions: 72 h
[27] = system: DERL-7 (IL-2 2.5 ng/mL); assay: as above; conditions: 72 h
[28] = system: normal primary NK cells, pool 3 (3 donors) (IL-2 2.5 ng/mL); assay: as above; conditions: 72 h

CC(=O)Nc1cccc(-n2c(=O)n(C3CC3)c(=O)c3c(Nc4ccc(I)cc4F)n(C)c(=O)c(C)c32)c1 [Trametinib] (max concentration tested 250 nM)
percent inhibition of viability [%]
Conditions | 0.025 nM | 0.25 nM | 2.5 nM | 25 nM | 250 nM
[1] | -7.84 | -6.23 | -12.6 | -5.74 | -11.9
[2] | 8.07 | 2.1 | -22.8 | -18.2 | -19.1
[3] | -2.64 | -1.54 | 0.86 | 2.64 | -0.71
[4] | -1.89 | -0.88 | 17.2 | 47.1 | 54.2
[5] | -3.76 | 0.79 | 3.16 | 13.2 | 9.03
[6] | -4.75 | -6.13 | -1.09 | 4.26 | -5.37
[7] | -0.65 | 10.4 | 14.7 | 17.6 | 21.2
[8] | -7.3 | -4.37 | 3.53 | -1.6 | 4.62
[9] | -8.96 | -8.36 | -15.1 | -31.2 | -2.14
[10] | -13.6 | -3.27 | 31.2 | 60.9 | 62.5
[11] | -8.95 | -7.23 | 10.8 | 8.62 | 17.9
[12] | 1.02 | 7.15 | 24.3 | 38.5 | 49.2
[13] | -14.5 | -14.1 | -12 | -11.3 | -11.4
[15] | -1.03 | -2.71 | -0.52 | -0.63 | 1.09

Conditions | drug sensitivity score
[14] | 0
[16] | 0.89
[17] | 0
[18] | 0
[19] | 10.7
[20] | 1.13
[21] | 0
[22] | 4.13
[23] | 0
[24] | 0.89
[25] | 15.5
[26] | 1.13
[27] | 10.2
[28] | 0.89

CC(C)c1cc(-c2n[nH]c(=O)n2-c2ccc3c(ccn3C)c2)c(O)cc1O [Ganetespib] (max concentration tested 1000 nM)
percent inhibition of viability [%]
Conditions | 0.1 nM | 1 nM | 10 nM | 100 nM | 1000 nM
[1] | -2.6 | -2.72 | -0.68 | 99.7 | 101
[2] | -23.6 | -15.5 | 5.21 | 86.1 | 88.1
[3] | -3.81 | -4.31 | 1.84 | 93.2 | 99.1
[4] | 1.44 | 4.41 | 5.54 | 99.7 | 109
[5] | -2.27 | -6.04 | 33.9 | 101 | 107
[6] | -4.93 | 1.18 | 65.2 | 77.6 | 79.6
[7] | -0.77 | -8.2 | 40.1 | 101 | 107
[8] | 2.3 | -0.42 | 39.1 | 41.8 | 52.9
[9] | -6.96 | -10.1 | 22.3 | 97.8 | 105
[10] | -3.59 | 1.19 | 45.1 | 90 | 92.9
[11] | 1.74 | 4.42 | 62.4 | 86.4 | 86.4
[12] | -4.38 | 6.84 | 68.9 | 101 | 101
[13] | -14.5 | -11 | 45.4 | 78.5 | 79.9
[15] | -7.81 | -3.48 | 56 | 98.1 | 99.3

Conditions | drug sensitivity score
[14] | 24.6
[16] | 17.9
[17] | 16.5
[18] | 17.1
[19] | 18.7
[20] | 22.8
[21] | 22.3
[22] | 23.3
[23] | 14.4
[24] | 21.4
[25] | 22
[26] | 23.5
[27] | 26.6
[28] | 20.1
